Results taken from PMC7557402, “Evaluation of Nucleoside Analogs as Antimicrobials Targeting Unique Enzymes in Borrelia burgdorferi” (Pathogens, 2020).

Assays:
[1] = molecular target: T1, Bgp (Borreliella burgdorferi, UniProt Q9F952); experiment: MTAN spectrophotometric activity assay (specific activity, Km); assay type: biochemical, Borrelia burgdorferi
Method: (§1) Recombinant MTANs were expressed and purified as previously described. Briefly, overnight 10 mL cultures of recombinant E. coli BL21(DE3) pLysS cells containing engineered pET30a expression plasmids for Bgp, MtnN or Pfs were grown at 37 °C with shaking (150 rpm) in LB broth supplemented with 50 µg/mL kanamycin and 0.5% glucose. The culture was diluted 1:50 in fresh medium and incubated at 37 °C with shaking (150 rpm) until the absorbance (600 nm) reached 0.4–0.6. Protein expression was induced with the addition of isopropyl β-D-1-thiogalactopyranoside (IPTG) to a final concentration of 1 mM and continued overnight incubation with shaking at 30 °C. Cells were harvested by centrifugation (10,000× g/15 min), and the pellet was washed once with ice-cold lysis buffer (50 mM sodium phosphate, pH = 8.0, 300 mM NaCl, 10 mM imidazole, 2mM β mercaptoethanol). Harvested cell pellets were resuspended in 10 mL fresh lysis buffer and lysed by sonication on ice using a Misonix Sonicator 300 (power setting 7, pulse 30 s, 1 min cooling with total sonication for 2.5 min). The cell lysates were centrifuged at 10,000× g for 15 min at 4 °C to remove debris, and the lysate was further filtered through a […] syringe filter to obtain a clear extract. Recombinant N-terminal hexahistidine tagged proteins were purified from the lysate using HisPur™ affinity columns (Thermo Scientific) according to the manufacturer’s specifications, and specifically eluted with 250 mM imidazole containing buffer (pH = 7). Eluted materials were analyzed by SDS-PAGE and Coomassie blue staining and found to be >95% homogeneous. Enzyme concentrations were determined using UV scans on a Cary100 spectrophotometer (Agilent) to determine the absorbance at 280 nm and applying extinction coefficients (0.1%) of 0.594 (Bgp), 0.637 (MtnN), and 0.404 (Pfs). Enzyme stocks (1 mg/mL) were prepared in 20% glycerol and stored at −80 °C.
(§2) Enzyme specific activities were determined using previously reported optimal pH conditions (50 mM sodium phosphate, pH = 7, for Bgp, MtnN; 50 mM sodium phosphate-citrate, pH = 5, for Pfs) and a spectrophotometric activity assay that measures the decrease in UV absorbance at 275 nm that occurs when MTA is cleaved to 5-methylthioribose and adenine (ε275 = 1.6 mM^−1cm^−1). The extinction coefficients for cleavage of other nucleosides were experimentally validated and found to be the same for MSeA, FSBA, and IADO (ε275 = 1.6 mM^−1cm^−1). Due to the added UV absorbance imparted by the 5′ purine group found in PurTA, the enzyme reactions were followed spectrophotometrically at 260 nm using the experimentally determined extinction coefficient of ε260 = 5.6 mM^−1cm^−1. Enzyme specific activities for MTA were generally 1–2 U/mg (1 U = µmol MTA hydrolyzed/min). The enzyme specific activities for other nucleosides were determined and reported in U/mg and as the % max specific activity (relative to MTA at 100%).
(§3) Kinetic constants have been previously reported for MTA [18]. As MSeA was also an efficient substrate for the B. burgdorferi nucleosidases, kinetic constants were determined using the activity assay described above, varying the nucleoside concentrations from 1 to 20 µM, and fitting the data on substrate-velocity plots to the Michaelis–Menten equation using GraphPad Prism (version 6):(1) Vo=Vmax[S]/Km+[S]

[2] = molecular target: T2, MtnN (Borreliella burgdorferi, UniProt O50860); experiment: as above; assay type: biochemical, Borrelia burgdorferi
T2 sequence (O50860 entry or part of it): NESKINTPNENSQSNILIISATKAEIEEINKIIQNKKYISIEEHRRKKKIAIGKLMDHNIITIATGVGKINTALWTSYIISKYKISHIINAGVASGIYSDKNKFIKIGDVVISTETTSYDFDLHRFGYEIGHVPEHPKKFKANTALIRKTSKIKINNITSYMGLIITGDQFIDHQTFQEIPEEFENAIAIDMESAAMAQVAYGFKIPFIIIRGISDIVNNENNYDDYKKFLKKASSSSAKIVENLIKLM
Method: as §1, §2, §3

[3] = molecular target: T3, Pfs (Borreliella burgdorferi, UniProt O50162); experiment: as above; assay type: biochemical, Borrelia burgdorferi
T3 sequence (O50162 entry or part of it): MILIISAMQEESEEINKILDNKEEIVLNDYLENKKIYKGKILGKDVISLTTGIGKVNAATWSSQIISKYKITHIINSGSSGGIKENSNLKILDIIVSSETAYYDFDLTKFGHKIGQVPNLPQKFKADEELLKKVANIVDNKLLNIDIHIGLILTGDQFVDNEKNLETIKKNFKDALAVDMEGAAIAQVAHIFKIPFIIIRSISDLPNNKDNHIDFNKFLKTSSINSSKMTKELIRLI
Method: as §1, §2, §3

[4] = molecular target: T1, Bgp; experiment: MTAN inhibition constants (competitive inhibition of MTA hydrolysis); assay type: biochemical, Borrelia burgdorferi; conditions: MTA 100 µM, inhibitor 0 to 100 µM, read-out: Ki (inhibition constant)
Method: (§4) The inhibited velocity (Vo’) and uninhibited velocity (Vo) values were determined, and the ratio of Vo’/Vo plotted as a function of inhibitor concentration. Ki values were calculated from these plots by fitting the data to the equation for competitive inhibition using GraphPad Prism:(2) Vo^′/Vo=Km+[S]/Km+[S]+(Km[I]/Ki)

[5] = molecular target: T2, MtnN; experiment: as above; assay type: biochemical, Borrelia burgdorferi; conditions: MTA 100 µM, inhibitor 0 to 100 µM, read-out: Ki (inhibition constant)
Method: as §4, with “For the other compounds, inhibition constants (Ki’s) were determined as previously described, using an MTA concentration of 100 µM and varying the inhibitor concentration from 0 to 100 µM. The” for “The”
(§5) The enzyme inhibition constant and delayed onset inhibition constant for dET-ImmA was previously reported.

[6] = molecular target: T3, Pfs; experiment: as above; assay type: biochemical, Borrelia burgdorferi; conditions: MTA 100 µM, inhibitor 0 to 100 µM, read-out: Ki (inhibition constant)
Method: as §4, with “For the other compounds, inhibition constants (Ki’s) were determined as previously described, using an MTA concentration of 100 µM and varying the inhibitor concentration from 0 to 100 µM. The” for “The”
as §5

[7] = tested on: B. burgdorferi N40; experiment: Subculture without inhibitor after 7 days of treatment: bacteriostatic versus bactericidal; assay type: cell-based, Borrelia burgdorferi
Method: After 7 days of treatment, a 5 µL aliquot from each treatment tube (and untreated control) was added to 1 mL of BSKII-RS medium to allow any remaining viable spirochetes in the sample to grow. After incubation for 7–21 days at 33 °C, the survival of the spirochetes was determined using dark-field microscopy to observe motility and by employing bioluminescence measurements to assess vitality of the recovered culture.
To further differentiate between bacteriostatic versus bactericidal activities of MTAN inhibitors, we subcultured drug treated spirochetes in the absence of inhibitors to recover any live B. burgdorferi remaining after seven days of inhibitor treatment (summarized in Table 4). If non-motile spirochetes from treated cultures were able to grow back, the inhibitor was determined to have a bacteriostatic effect at the selected concentration. […] Spirochete survival was determined by both dark-field microscopy and bioluminescence measurements. Microscopic examination allowed assessment of motility of the spirochetes whereas bioluminescence assays assessed recovery and viability of B. burgdorferi cells. […] By comparison, a reduction in bioluminescence compared to the untreated control was observed after treatment with dEt-ImmA at a 0.4 µM or greater concentration. […] After seven days of treatment, live spirochetes were only recovered when concentrations of ≤0.4 µM were used for dEt-ImmA and IADO.

[8] = pH 7, 1 U = 1 µmol MTA hydrolyzed per minute

T1 sequence (Q9F952 entry or part of it): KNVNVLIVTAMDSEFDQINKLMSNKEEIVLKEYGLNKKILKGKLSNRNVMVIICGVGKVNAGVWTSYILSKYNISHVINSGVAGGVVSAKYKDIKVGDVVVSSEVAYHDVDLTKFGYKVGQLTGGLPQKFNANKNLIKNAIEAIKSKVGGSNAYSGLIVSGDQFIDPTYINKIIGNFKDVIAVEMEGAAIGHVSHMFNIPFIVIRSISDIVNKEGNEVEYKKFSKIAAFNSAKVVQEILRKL

Nc1ncnc2c1ncn2[C@@H]1O[C@H](CI)[C@@H](O)[C@H]1O [IADO, 5′-deoxy-5′-iodoadenosine]
Specific Activity [1, 8]: 0.04 U/mg | % Max Specific Activity ([1]; relative to MTA as a substrate): 4% | Specific Activity [2, 8]: 0.03 U/mg | % Max Specific Activity ([2]; relative to MTA as a substrate): 3% | Specific Activity ([3]; pH 5, 1 U = 1 µmol MTA hydrolyzed per minute): 0.11 U/mg | % Max Specific Activity ([3]; relative to MTA as a substrate): 6% | Ki [4]: 0.63 µM | Ki [5]: 2.47 µM | Ki [6]: 0.9 µM | recovery of live spirochetes ([7]; 2 µM and 10 µM, 21 days of subculture in media lacking MTAN inhibitors): no live spirochetes were recovered | Inhibitor Activity ([7]; Dose: 2 µM, 10 µM, 7 days of treatment, then subculture): Bactericidal | concentrations at which live spirochetes were recovered ([7]; after seven days of treatment): ≤ 0.4 µM | concentrations that exert bactericidal activity ([7]; after seven days of treatment, bacteriostatic at lower concentrations): ≥ 1 µM
